According to patent US20230414511A1, “COMPOSITIONS AND METHODS FOR DEEP DERMAL DRUG DELIVERY” (ARCUTIS BIOTHERAPEUTICS, INC., priority 2020, published 2023):

Columns and labels:
[1] = Particle size distribution of SHR0302 by laser diffraction (Malvern); assay type: physicochemical; conditions: SHR0302 used in Example 1, FIG. 1
Text: In the pharmaceutical compositions of the present invention, the active ingredient is present as small particles. Particle size of the drug can be assessed using laser diffraction methods. Laser diffraction is recognized by standards and guidance agencies including ISO and ASTM and is widely used to determine particle size distributions. In conducting the assessment, the sample is passed through a laser beam, which results in laser light scattered at a range of angles. Detectors placed at fixed angles measure the intensity of light scattered at that position. A mathematical model is then applied to generate a particle size distribution. The particle size values reported herein are determined by using a liquid or wet dispersion method.
In particle size determinations, the median value is defined as the value where half of the population resides above this point, and half resides below this point. For particle size distributions the median is called the D50. The D50 is the size that splits the distribution with half above and half below this diameter. The distribution width may also be characterized by citing one, two or three values on the x-axis, typically some combination of the D10, D50, and D90. The D50, the median, has been defined above as the diameter where half of the population lies below this value. Similarly, 90 percent of the distribution lies below the D90, and 10 percent of the population lies below the D10.
A pharmaceutical composition comprising 3% SHR0302 suspended in dimethicone was prepared. The primary particle size distribution of the SHR0302 is characterized by a D10 value of less than about 0.25 μm; a D50 value of less than about 0.7 μm; and a D90 value of less than about 5 μm. The pharmaceutical composition was a transparent solution due to the particles being too small to scatter visible light. A Malvern Metasizer Model 3000 using the Hydro MV dispersion unit was used to determine the particle size distribution profile of SHR0302. […]

JAK1 = JAK1 (Homo sapiens, UniProt P23458); conditions: cited from earlier work
Sequence of JAK1 (P23458 whole entry): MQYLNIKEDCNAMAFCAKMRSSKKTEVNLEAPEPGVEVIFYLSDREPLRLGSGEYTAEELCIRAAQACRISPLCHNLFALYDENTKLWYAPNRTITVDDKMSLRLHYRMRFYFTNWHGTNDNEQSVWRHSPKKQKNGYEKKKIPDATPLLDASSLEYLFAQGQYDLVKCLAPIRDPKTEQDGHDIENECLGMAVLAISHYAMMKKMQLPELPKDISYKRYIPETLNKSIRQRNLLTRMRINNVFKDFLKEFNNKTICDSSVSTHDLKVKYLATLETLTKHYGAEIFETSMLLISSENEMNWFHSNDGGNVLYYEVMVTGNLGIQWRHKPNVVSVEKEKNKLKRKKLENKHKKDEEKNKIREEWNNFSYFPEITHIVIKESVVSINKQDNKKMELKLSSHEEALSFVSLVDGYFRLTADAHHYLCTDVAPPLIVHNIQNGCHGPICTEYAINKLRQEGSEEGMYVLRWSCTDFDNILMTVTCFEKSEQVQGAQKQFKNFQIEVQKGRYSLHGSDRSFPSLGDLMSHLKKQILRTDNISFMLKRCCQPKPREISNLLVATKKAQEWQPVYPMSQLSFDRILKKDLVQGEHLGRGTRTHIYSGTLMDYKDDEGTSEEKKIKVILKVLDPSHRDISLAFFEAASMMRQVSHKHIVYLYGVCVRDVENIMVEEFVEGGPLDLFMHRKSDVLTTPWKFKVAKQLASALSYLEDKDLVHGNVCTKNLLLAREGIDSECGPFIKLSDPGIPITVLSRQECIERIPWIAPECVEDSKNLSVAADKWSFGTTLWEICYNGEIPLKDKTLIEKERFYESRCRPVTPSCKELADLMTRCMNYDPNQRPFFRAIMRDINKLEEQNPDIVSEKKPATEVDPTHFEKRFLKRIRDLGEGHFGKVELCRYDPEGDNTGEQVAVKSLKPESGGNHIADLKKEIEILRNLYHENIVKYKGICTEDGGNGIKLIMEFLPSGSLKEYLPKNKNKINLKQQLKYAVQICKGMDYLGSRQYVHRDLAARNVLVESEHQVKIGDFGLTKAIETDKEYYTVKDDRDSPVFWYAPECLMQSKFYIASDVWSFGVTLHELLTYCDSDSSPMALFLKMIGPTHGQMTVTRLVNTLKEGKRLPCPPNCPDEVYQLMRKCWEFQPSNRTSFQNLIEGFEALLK

[2] = orally administrated, women; cited from earlier work

Row | SMILES | primary particle size D10 [1] | primary particle size D50 [1] | primary particle size D90 [1] | inhibition of JAK1 (JAK1) | efficacy in treatment of acne [2]
1 | COc1nsc(NC(=O)N2C[C@H]3C[C@H](N(C)c4ncnc5[nH]ccc45)C[C@H]3C2)n1 [SHR0302, (3aR,5S,6aS)-N-(3-methoxyl-1,2,4-thiadiazol-5-yl)-5-(methyl(7H-pyrrolo[2,3-d]pyrimidin-4-yl)amino)hexahydrocyclopenta[c]pyrrole-2(1H)-carboxamide] | less than 0.25 μm | less than 0.7 μm | less than 5 μm | potent | –
2 | CC(=O)S[C@@H]1CC2=CC(=O)CC[C@]2(C)[C@H]2CC[C@@]3(C)[C@@H](CC[C@@]34CCC(=O)O4)[C@H]12 [spironolactone, 17-hydroxy-7α-mercapto-3-oxo-17α-pregn-4-ene-21-carboxylic acid γ-lactone acetate] | – | – | – | – | efficacious
